Experimental findings from US4072757A, “N^2 alkoxynaphthylsulfonyl-L-argininamides and the pharmaceutically acceptable salts thereof” (Mitsubishi Chemical Industries Limited, priority 1974, dated 1978) are described below.

SMILES strings stand for the structures.

The target of one data set is T1, thrombin (Bos taurus, UniProt P00735).
T1 construct: clotting of bovine fibrinogen
The data set can be described thus: fibrinogen coagulation time. The data set is classed as biochemical. To be noted: bovine fibrinogen, thrombin 5 units/ml, borate saline buffer pH 7.4, 25° C; normal coagulation time 50-55 seconds to 100-110 seconds; read-out: Concentration required to prolong the coagulation time by a factor of two. The procedure:
The measurement of the fibrinogen coagulation time was conducted as follows:
Immediately after mixing, the reaction mixture was transferred from the ice bath to a bath maintained at 25° C. Coagulation times were taken as the period between the time of transference to the 25° C bath and the time of the first appearance of fibrin threads.
The term "concentration required to prolong the coagulation time by a factor of two" is the concentration of an active ingredient required to prolong the normal coagulation time 50-55 seconds to 100-110 seconds.
Regarding `COc1ccc2cc(S(=O)(=O)N[C@@H](CCCNC(=N)N)C(=O)N3CCCCC3C(=O)O)ccc2c1` (stereo partly drawn) [Sample 4, 1-[N^2-(6-methoxy-2-naphthylsulfonyl)-L-arginyl]-2-piperidinecarboxylic acid], the IC (2-fold clotting time) is 3 µM. Consider `COc1cc2ccc(S(=O)(=O)N[C@@H](CCCNC(=N)N)C(=O)N3CCC(C)CC3C(=O)O)cc2cc1OC` (stereo partly drawn) [Sample 5, 1-[N^2-(6,7-dimethoxy-2-naphthylsulfonyl)-L-arginyl]-4-methyl-2-piperidinecarboxylic acid], for which the IC (2-fold clotting time) was determined as 0.4 µM. Turning to `COc1ccc2ccc(S(=O)(=O)N[C@@H](CCCNC(=N)N)C(=O)N3CCC(C)CC3C(=O)O)cc2c1` (stereo partly drawn) [Sample 7, 1-[N^2-(7-methoxy-2-naphthylsulfonyl)-L-arginyl]-4-methyl-2-piperidinecarboxylicacid], the IC (2-fold clotting time) came out at 0.15 µM. Consider `COc1ccc2cc(S(=O)(=O)N[C@@H](CCCNC(=N)N)C(=O)N3CCC(C)CC3C(=O)O)cc(OC)c2c1` (stereo partly drawn) [Sample 11, 1-[N^2-(4,6-dimethoxy-2-naphthylsulfonyl)-L-arginyl]-4-methyl-2-piperidinecarboxylic acid], for which the IC (2-fold clotting time) was 0.35 µM. As to `CCCC1CCN(C(=O)[C@H](CCCNC(=N)N)NS(=O)(=O)c2ccc3cc(OC)c(OC)cc3c2)C(C(=O)O)C1` (stereo partly drawn) [Sample 19, 1-[N^2-(6,7-dimethoxy-2-naphthylsulfonyl)-L-arginyl]-4-propyl-2-piperidinecarboxylic acid], the IC (2-fold clotting time) came to 0.5 µM. Still for that read-out and setting: with `COc1cc2ccc(S(=O)(=O)N[C@@H](CCCNC(=N)N)C(=O)N3CCC(c4ccccc4)CC3C(=O)O)cc2cc1OC` (stereo partly drawn) [Sample 30, 1-[N^2-(6,7-dimethoxy-2-naphthylsulfonyl)-L-arginyl]-4-phenyl-2-piperidinecarboxylic acid] the figure was 12 µM.

Test system in a further data set: not listed separately
The data set can be described thus: acute toxicity (LD50) by intraperitoneal administration in mice. To be noted: mouse, in vivo, ip, mice (male, 20 g). The procedure: On the other hand, LD50 values for N^2 -dansyl-N-butyl-L-argininamide and N^2 -dansyl-N-methyl-N-butyl-L-argininamide are 75 and 70 milligrams per kilogram, respectively. The therapeutic agents of this invention may be administered to mammals including humans, alone or in combination with pharmaceutically acceptable carriers, the proportion of which is determined by the solubility and chemical nature of the compound, chosen route of administration and standard pharmaceutical practice. For example, the compounds may be injected parenterally, that is, intramuscularly, intravenously or subcutaneously. For parenteral administration, the compounds may be used in the form of sterile solutions containing other solutes, for example, sufficient saline or glucose to make the solution isotonic. The compounds may be administered orally in the form of tablets, capsules, or granules containing suitable excipients such as starch, lactose, white sugar and the like. The compounds may be administered sublingually in the form of troches or lozenges in which each active ingredient is mixed with sugar or corn syrups, flavoring agents and dyes, and then dehydrated sufficiently to make the mixture suitable for pressing into solid form. The compounds may be administered orally in the form of solutions which may contain coloring and flavoring agents.
Take `COc1cc2ccc(S(=O)(=O)N[C@@H](CCCNC(=N)N)C(=O)N3CCCCC3C(=O)O)cc2cc1OC` (stereo partly drawn) [Sample 2, 1-[N^2-(6,7-dimethoxy-2-naphthylsulfonyl)-L-arginyl]-2-piperidinecarboxylic acid]: the LD50 (commonly the dose at which mortality reaches 50%) amounted to 1500 mg/kg. As for `CCOC(=O)C1CC(C)CCN1C(=O)[C@H](CCCNC(=N)N)NS(=O)(=O)c1ccc2ccc(OC)cc2c1` (stereo partly drawn) [Sample 6, Ethyl 1-[N^2-(7-methoxy-2-naphthylsulfonyl)-L-arginyl]-4-methyl-2-piperidinecarboxylate], the LD50 lay in the range of 670 to 1000 mg/kg. On the same count and under the same terms, the figure for `COc1ccc2cc(S(=O)(=O)N[C@@H](CCCNC(=N)N)C(=O)N3CCC(C)CC3C(=O)O)cc(OC)c2c1` (stereo partly drawn) [Sample 11, 1-[N^2-(4,6-dimethoxy-2-naphthylsulfonyl)-L-arginyl]-4-methyl-2-piperidinecarboxylic acid] is 670 to 1000 mg/kg.
